Common to all, as to assay type: cell-based
The subject of test [1] is human peripheral blood mixed lymphocytes. The test is described as follows: IFN-γ production in mixed lymphocyte culture (MLC) reaction. The conditions noted are these: 120 h. The protocol:
Effect of icariside I on promotion of γ-interferon (interferon-gamma, IFN-γ) production by human peripheral blood mixed lymphocytes during culture (an experimental model mimicking enhancing immunity in human body).
(1) Preparation of human peripheral blood mononuclear cells (PBMCs): following the method in Example 5 (2), peripheral blood PBMCs from two normal human were prepared.
Cell concentrations of freshly isolated peripheral blood mononuclear cells (PBMCs) were adjusted to […] with RPMI1640 complete medium. Then, lymphocytes from two healthy human with equal volumes were mixed to maintain a total cell concentration of […]. Different concentrations (in a gradient) of or no icariside I were added thereto (with final concentration of 100 ng/ml, 1000 ng/ml) followed by fully mixing. Then the cells after stimulation were seeded and cultured in a 96-well round-bottom culture plate. The cell concentration per well was maintained at 2×10^5/ml (200 μl/well) and was incubated at 37° C. with 5% CO2 for 120 h in an incubator. The levels of cytokine IFN-γ were detected.
According to the method stated in Example 5 (4), the γ-interferon generated from human peripheral blood mixed lymphocyte culture (MLC) was detected.
Equal cell concentrations of lymphocytes from healthy human were mixed cultured for five days (120 h). The pharmaceutical icariside I was added (in a gradient of different pharmaceutical concentrations) or not added. […] Among them, the human lymphocyte A control is a group of samples containing only one kind of human lymphocyte, while human lymphocyte B control is a group of samples containing two kinds of human lymphocytes, that is, a control group in which two kinds of human lymphocytes were mixed for culture without adding icariside I. The concentrations of icariside I added were 0.1 and 1 μg/ml respectively. *P<0.05; **P<0.01. […]
Cell concentrations of freshly isolated peripheral blood mononuclear cells (PBMCs) were adjusted to 5×10^5/ml with RPMI1640 complete medium. […] The level of cytokine IFN-γ produced was then detected.

Test [2] deals with normal human peripheral blood mononuclear cells (PBMCs). Put plainly: IFN-γ production by PBMCs stimulated with Anti-CD3 (ELISA). The conditions noted are these: PBMCs treated with anti-CD3 (1 μg/ml); icariside I 1, 10, 100 ng/ml; 12-48 h; time and dose dependent. The protocol: (§1) Effect of icariside I on promoting normal human peripheral blood mononuclear cells (PBMCs subjected to mAb treatment) to produce γ-interferon (interferon-gamma, IFN-γ) (an experimental model mimicking enhancing immunity in human body).
(§2) (1) Preparation of icariside I solution for the test. 10 mg icariside I was dissolved in 1 ml DMSO (with initial concentration of 10 mg/ml). The solution was then transferred into small vials and stored in a freezer at −80° C. for future use.
(§3) The whole blood samples were drawn from peripheral vein of healthy volunteers. Heparin (blood:heparin=10 ml: 80 μl) was used for anticoagulation. Then, it is diluted with equal volume of Hank's solution. The diluted blood samples were slowly laid on the Ficoll separation solution (Ficoll to diluted blood ratio is 3:4) followed by Ficoll density gradient centrifugation (22° C. 2200 r/min, 20 min). After centrifugation, samples were divided into three layers in the tube. At the interface between the top and middle layers, there was a narrow band which is a mononuclear cell-based yellow-white cloud layer. The peripheral blood mononuclear cells (PBMCs) were drawn and transferred into another centrifuge tube with a pipette. […] The mononuclear cells were counted with trypan blue solution. […]
(§4) The collected cell culture supernatants with different culture time were detected with ELISA to measure the amount of cytokine IFN-γ produced. […]
(In general: An ELISA detects its analyte on a solid surface through an enzyme-linked reagent.)

Test [3] shares this test system. Put plainly: IFN-γ production by PBMCs stimulated with Anti-CD3/Anti-CD28 (ELISA). The conditions noted are these: PBMCs treated with anti-CD3 and anti-CD28 (1 μg/ml each); icariside I 1, 10, 100 ng/ml; 12-48 h; dose-dependent. The protocol:
as §1, §2, §3, §4

These results are taken from patent publication US11117919B2, “Icariside compound, preparation method thereof, and application thereof” (FOSHAN GOLDEN HEALTH TECHNOLOGY CO., LTD., priority 2015, dated 2021).

Molecules are shown by their SMILES. “Also recorded” adds a separate entry of the source.

On to `COc1ccc(-c2oc3c(CC=C(C)C)c(O[C@@H]4O[C@H](CO)[C@@H](O)[C@H](O)[C@H]4O)cc(O)c3c(=O)c2O)cc1` [icariside I], for which, in test [1] (100 and 1000 ng/ml, dose dependent), the “promotion of generation of IFN-γ in the mixed lymphocyte culture” value is “up to 300%”. The “ability to promote human γ-interferon production in mixed lymphocyte culture” value in test [1] (final concentration 1000 ng/ml) is recorded as “best ability”. Besides, the “IFN-γ level produced by PBMCs” value is on record as “significantly enhanced; also recorded: significantly increased” in test [2] and “significantly enhanced” in test [3].
